Laboratory results reported in patent US8299262B2, “Pyridylmethyl-sulfonamide compounds” (BASF SE, priority 2007, dated 2012).
Read-outs that look alike come from different tables or passages of the source.

Legend:
[1] = tested on: Phakopsora pachyrhizi; assay: Comparative greenhouse test, curative action against soybean rust Phakopsora pachyrhizi (Use Example 22); assay type: in vivo; conditions: curative spray on soybean, untreated control 100
Description: The active compounds were formulated separately or together as a stock solution comprising 25 mg of active compound which was made up to 10 ml using a mixture of acetone and/or dimethyl sulfoxide (DMSO) and the emulsifier Wettol EM 31 (wetting agent having emulsifying and dispersing action based on ethoxylated alkylphenols) in a volume ratio of solvent/emulsifier of 99 to 1. This solution was then made up to 100 ml using water. This stock solution was diluted with the solvent/emulsifier/water mixture described to the active compound concentration given below.
Leaves of potted soybean seedlings were dusted with a suspension of spores of rust of soybean (Phakopsora pachyrhizi). The plants were then placed in a chamber with high atmospheric humidity (90 to 95%), at 23 to 27° C., for 24 hours. During this time, the spores germinated and the germinal tubes penetrated into the leaf tissue. The next day, the infected plants were sprayed to runoff point with an aqueous suspension having the concentration of active compound stated in table 4 (250 ppm). After drying of the sprayed suspension, the test plants were returned to the greenhouse and cultivated at temperatures between 23 and 27° C. and at 60 to 80% relative atmospheric humidity for a further 14 days. The extent of the rust development on the leaves was then determined visually.

[2] = tested on: Colletotrichum truncatum; assay: Synergistic mixtures, microtiter test, Colletotrichum truncatum (Use Example 28); assay type: cell-based; conditions: single compound, 4 ppm
[3] = tested on: Thielaviopsis basicola; assay: Synergistic mixtures, microtiter test, Thielaviopsis basicola (Use Example 31); assay type: cell-based; conditions: single compound
[4] = tested on: Pyricularia oryzae; assay type: cell-based; conditions: single compound
[5] = tested on: Septoria tritici; assay: Synergistic mixtures, microtiter test, leaf blotch pathogen Septoria tritici (Use Example 26); assay type: cell-based; conditions: single compound, 4 ppm
[6] = tested on: Gaeumannomyces graminis; assay: Synergistic mixtures, microtiter test, Gaeumannomyces graminis (Use Example 30); assay type: cell-based; conditions: single compound
[7] = tested on: Alternaria solani; assay: Synergistic mixtures, microtiter test, early blight pathogen Alternaria solani (Use Example 24); assay type: cell-based; conditions: single compound
[8] = tested on: Puccinia recondita; assay: Synergistic mixtures, greenhouse, preventative control of brown rust on wheat caused by Puccinia recondita (Use Example 34); assay type: in vivo; conditions: single compound, untreated control 90% disease
Description: These percentages were converted into efficacies. An efficacy of 0 means that the growth level of the pathogens corresponds to that of the untreated control; an efficacy of 100 means that the pathogens were not growing.
The expected efficacies of active compound mixtures were determined using Colby's formula [R. S. Colby, Calculating synergistic and antagonistic responses of herbicide combinations, Weeds 15, 20-22 (1967)] and compared with the observed efficacies. E=x+y−x·y/100 Colby's formula • E expected efficacy, expressed in % of the untreated control, when using the mixture of the compounds A and B at the concentration a and b • x efficacy, expressed in % of the untreated control, when using compound A at a concentration of a • y efficacy, expressed in % of the untreated control, when using compound B at a concentration of b A) Microtiter Tests
The spray solutions were prepared in several steps:
The stock solution were prepared as follows: a mixture of acetone and/or dimethylsulfoxide and the wetting agent/emulsifier Wettol, which is based on ethoxylated alkylphenoles, in a relation (volume) solvent-emulsifier of 99 to 1 was added to 25 mg of the compound to give a total of 10 ml. Water was then added to total volume of 100 ml.
This stock solution was diluted with the described solvent-emulsifier-water mixture to the given concentration. The compounds pyraclostrobin, boscalid and epoxiconazole were used as commercial finished formulations and diluted with water to the stated concentration of the active compound.
The first two developed leaves of pot-grown wheat seedling were sprayed to run-off with an aqueous suspension, containing the concentration of active ingredient or their mixture as described below. The next day the plants were inoculated with spores of Puccinia recondita. To ensure the success the artificial inoculation, the plants were transferred to a humid chamber without light and a relative humidity of 95 to 99% and at temperatures between 20 and 24° C. for 24 h. Then, the plants were cultivated for 6 days in a greenhouse chamber at 20 to 24° C. and a relative humidity between 65 and 70%. The extent of fungal attack on the leaves was visually assessed as % diseased leaf area.

[9] = tested on: Pyrenophora teres; assay: Synergistic mixtures, microtiter test, net blotch pathogen Pyrenophora teres (Use Example 29); assay type: cell-based; conditions: single compound
[10] = tested on: Fusarium culmorum; assay: Synergistic mixtures, microtiter test, Fusarium culmorum (Use Example 27); assay type: cell-based; conditions: single compound, 16 ppm
[11] = tested on: Verticillium dahliae; conditions: single compound
[12] = tested on: Phytophthora infestans; assay type: cell-based; conditions: single compound
[13] = tested on: Pyricularia oryzae; assay type: cell-based; conditions: control =100%, day 7

Compound | Observed efficacy (%) [2] [%] | Observed efficacy (%) [5] [%] | Observed efficacy (%) ([6]; 0.063 ppm) | Observed efficacy (%) ([6]; 0.25 ppm) | Observed efficacy (%) ([7]; 0.063 ppm) | Observed efficacy (%) ([8]; 16 ppm) | Observed efficacy (%) ([9]; 0.25 ppm) | Observed efficacy (%) [10] [%] | Observed efficacy (%) ([8]; 4 ppm) | Observed efficacy (%) ([3]; 1 ppm) | also measured
Cc1nccc(CNS(=O)(=O)c2ccc(Oc3ccccn3)cc2)c1C [Example 33] | 24 | 22 | 4 | 21 | 4 | 33 | 0 | 1 | – | – | infection in [%] at 250 ppm [1]: 5%; Observed efficacy (%) ([3]; 16 ppm): 9%; Observed efficacy (%) ([4]; 0.25 ppm): 38%
COc1cc(CNS(=O)(=O)c2ccc(Oc3cccc(C)n3)cc2)ccn1 [Example 45] | 25 | 50 | – | – | 1 | 0 | – | 2 | 0 | – | Observed efficacy (%) ([4]; 0.063 ppm): 30%; Observed efficacy (%) ([9]; 1 ppm): 25%
Cc1cc(Oc2ccc(C(F)(F)F)cn2)ccc1S(=O)(=O)NCc1ccnc(C)c1C [Example 203] | 36 | 45 | – | – | 0 | 44 | 34 | 1 | 22 | 0 | Observed efficacy (%) ([11]; 1 ppm): 52%; Observed efficacy (%) ([11]; 4 ppm): 56%; Observed efficacy (%) ([3]; 4 ppm): 13%
COc1cc(CNS(=O)(=O)c2ccc(Oc3ncccc3C(F)(F)F)cc2)ccn1 [Example 13] | 26 | 39 | 31 | – | – | – | – | 2 | – | – | Observed efficacy (%) ([12]; 0.25 ppm): 16%; Observed efficacy (%) ([6]; 0.016 ppm): 6%; Observed efficacy (%) ([9]; 0.063 ppm): 19%
Cc1nccc(CNS(=O)(=O)c2ccc(Oc3ccccc3)cc2)c1C [comparative example 2, reference compound] | – | – | – | – | – | – | – | – | – | – | infection in [%] at 250 ppm [1]: 100%
Cc1nccc(CNS(=O)(=O)c2ccc(Oc3ccc(Br)cn3)cc2)c1C [Example 71] | 29 | 43 | 52 | – | 4 | 0 | 20 | 1 | – | 9 | Observed efficacy (%) ([11]; 4 ppm): 55%; Observed efficacy (%) ([3]; 16 ppm): 56%
COc1cc(CNS(=O)(=O)c2ccc(Oc3ccccn3)cc2)ccn1 [Example 7] | 20 | – | 9 | 51 | – | – | 17 | 7 | – | – | growth in [%] at 31 ppm [13]: 53%; Observed efficacy (%) ([12]; 0.016 ppm): 11%; Observed efficacy (%) ([4]; 0.063 ppm): 1%; Observed efficacy (%) ([7]; 0.016 ppm): 11%; Observed efficacy (%) ([9]; 1 ppm): 28%
COc1cc(CNS(=O)(=O)c2ccc(Oc3ncc(C(F)(F)F)cc3C)cc2)ccn1 [Example 160] | 37 | 55 | – | – | – | – | 11 | 3 | 0 | 14 | Observed efficacy (%) ([12]; 1 ppm): 17%; Observed efficacy (%) ([4]; 0.25 ppm): 60%; Observed efficacy (%) ([8]; 1 ppm): 0%
COc1cc(CNS(=O)(=O)c2ccc(Oc3ccccc3)cc2)ccn1 [comparative example 1, reference compound] | – | – | – | – | – | – | – | – | – | – | growth in [%] at 31 ppm [13]: 97%
O=S(=O)(NCc1ccncc1)c1ccc(Oc2ccc(C(F)(F)F)cn2)cc1 [Example 9] | – | 2 | – | 5 | – | 0 | – | 0 | – | 11 | –
